Data published in patent publication US10342853B2, “Leptin active peptide having D helix region mutations, coding gene thereof, and application thereof” (SHANGHAI YUANXIN BIOCHEMICAL SCIENCE AND TECHNOLOGY CO. LTD., priority 2015, dated 2019).

System: 3T3-L1 preadipocyte line
Assay: In-vitro lipid-lowering (adipocyte-degrading) activity analysis, MTT detection
Assay type: cell-based
Method: Lipid degradation activity of the synthesized leptin active peptide having helix D region mutation is analyzed on a cellular level by taking a 3T3-L1 preadipocyte line as a model. Specific operations are as follows:
b: an early differentiation stage D0-D2 (0-2nd day of induced differentiation); and
c: a mature adipocyte stage D9 (the 9th day of induced differentiation);
a. leptin active peptide having helix D region mutation (PEP-D): diluted to 10^−3M with purified water and preserved at −20 degree C. for later use. After an experiment is started, working concentrations have 3 concentration gradients, that is, 10^−6M, 10^−9M and 10^−11M;
b. positive control. I: H-LEP, recombinant human-derived leptin protein (10221-HNAE, Beijing Sino Biological Inc.), diluted to 10^−6M with purified water and preserved at −20 degree C. for later use. After an experiment is started, the working concentration is 10^−9M;
c. positive control 2: Ros (Rosiglitazone, 82408, Sigma), diluted to a stock solution with a concentration of 2518 μM with DMSO and preserved at −20 degree C. for later use. After an experiment is started, the stock solution is diluted to a working solution of 0.5 μM with cell culture fluid;
d. negative control (Control): equivalent quantity of PBS
(1) Inoculating 3T3-L1 preadipocytes in corning cell bind 96-well plates (totally inoculated with 3 plates, respectively plate a, plate b and plate c), wherein the inoculation density is 4500 cells/well; and marking, and standing and culturing at 37 degree C. in a 5% CO2 incubator. Each sample of each plate is operated repeatedly for 3 times, and the whole experiment is repeated for 3 times;
(2) Continuously culturing for 48 hours after the cells are merged to 100% (enabling the cells to exit from a growth cycle, and starting induced differentiation); and
i, taking out the plate a; respectively adding different amounts of leptin active peptide having helix D region mutation (PEP-D) to enable the working concentrations to be respectively 3 concentration gradients, that is, 10^−6M, 10^−9M and 10^−11M; setting 2 positive controls, a negative control (PBS) and a blank control (3 repeated holes are set for each sample), and continuously standing and culturing at 37 degree C. in the 5% CO2 incubator.
ii, when culturing to 45 hours (that is, 3 hours before the end of drug treatment), taking out the plate a, and measuring MTT (preadipocytes). Specific operations: adding 20 μL of 5 mg/mL of MTT solution into each well, continuously standing and culturing at 37 degree C. in the 5% CO2 incubator for 3 hours, sucking and discarding the culture solution in the wells, adding 150 μL of DMSO into each well, horizontally shaking for 10 min, detecting a light absorption value at 492 nm by a microplate reader, and drawing a growth curve;
i, taking out the plate b; adding the differentiation induced liquid I (D0); respectively adding the leptin active peptide having helix D region mutation (PEP-D); setting 2 positive controls, a negative control (PBS) and a blank control (3 repeated holes are set for each sample), and continuously standing and culturing at 37 degree C. in the 5% CO2 incubator.
ii, when culturing to 45 hours (that is, 3 hours before the end of drug treatment), taking out the plate b, and measuring MTT (at the early differentiation stage, D0-D2). Specific operations: adding 20 μL, of 5 mg/mL of MTT solution into each well; continuously standing and culturing at 37 degree C. in the 5% CO2 incubator for 3 hours; sucking and discarding the culture solution in the wells; adding 150 μL of DMSO into each well; horizontally shaking for 10 min; detecting a light absorption value at 492 nm by the microplate reader; and drawing a growth curve;
i, taking out the plate c; adding the differentiation induced liquid I (D0) into each well; and continuously standing and culturing at 37 degree C. in the 5% CO2 incubator for 48 hours; […]

Substance	adipocyte lysis activity vs. H-LEP (MTT, FIG. 2 mark b, P<0.05)	adipocyte lysis activity vs. Ros (MTT, FIG. 2 mark c, P<0.05)	concentration dependence of lipid-lowering activity (MTT, PEP-D at 10^−6M, 10^−9M and 10^−11M)	concentration with optimal lipid-lowering effect (MTT, of 10^−6M, 10^−9M and 10^−11M tested, on a whole)	dependence of lipid-lowering activity on cell differentiation period (MTT, preadipocytes, D0-D2, D9)	adipocyte-degrading activity compared with positive controls H-LEP and Ros (MTT, three cell differentiation stages (preadipocytes, early differentiation D0-D2, mature adipocyte D9), H-LEP 10^−9M, Ros 0.5 μM)	cell lysis effects at three stages (preadipocytes stage, differentiation stage (D0-D2), mature adipocyte stage (D9))	adipocyte lysis activity vs. negative control (Control, PBS) (MTT, FIG. 2 mark a, P<0.05, H-LEP 10^−9M, Ros 0.5 μM)
STEVVALDGLQGSLQTMLLQLEYS (An amino acid sequence of the leptin active peptide having helix D region mutation) [PEP-D]	obviously better than that of the H-LEP	obviously better than that of the Ros	obvious concentration dependence	10^−9 M	dependence in a cell differentiation period	obviously better than that of positive control-human-derived leptin protein (H-LEP) and a commercially available drug rosiglitazone (Ros)	obvious cell lysis effects	–
H-LEP: recombinant human-derived leptin protein (10221-HNAE, Beijing Sino Biological Inc.), positive control	–	–	–	–	–	–	–	obviously better than that of the negative control
